Results taken from US11820745B2, “PKC-activating compounds for the treatment of neurodegenerative diseases” (Synaptogenix, Inc., priority 2008, dated 2023).

What was measured:
Aβ = Aβ levels in N2a neuroblastoma cells transfected with human APPSwe/PSID (Aβ1-42 ELISA); type: cell-based, mouse; settings: for levels of intracellular Aβ / levels of secreted Aβ: 24 h incubation, various concentrations; for levels of intracellular Aβ: FIG. 7a; for levels of secreted Aβ: FIG. 7b; for concentration dependence of Aβ inhibition: BR-101 and BR-111 up to 10 to 100 μM
Protocol: (§1) Cell culture. Rat hippocampal H19-71GF-IR cells (ATCC, Manassas, Va.) were plated onto poly-L-lysine coated plates and grown at 35° C. in DMEM/10% FCS for several days until about 50% coverage was obtained. The cells were then induced to differentiate into a neuronal phenotype by replacing the medium with 5 ml N2 medium containing 10 ng/ml basic fibroblast growth factor at 39° C. and grown in T-75 flasks at 37° C. Human SH-SY5Y neuroblastoma cells (ATCC) were cultured in 45% F12K/45% MEM/10% FCS. Mouse N2A neuroblastoma cells were cultured in DMEM/10% FCS without glutamine. Rat hippocampal neurons from 18-day-old embryonic
AB Measurement and Cell Viability Assay. Aβ was measured using an Aβ1-42 human fluorimetric ELISA kit (Invitrogen) according to the manufacturer's instructions. Results were measured in a Biotek Synergy HT microplate reader. AlamarBlue and CyQuant NF (Invitrogen) according to the manufacturer's instructions.
To measure the effects of PKCε activation on Aβ production, we used mouse neuro2a (N2a) neuroblastoma cells transfected with human APPSwe/PSID, which produce large quantities of Aβ. Petanceska et al., J Neurochem. 1996; 74: 1878-84. […] With bryostatin, which activates PKC by binding to the diacylglycerol-binding site, the inhibition was biphasic, with concentrations of 20 nM or higher producing no net effect. This may be explained by the ability of this class of PKC activators to downregulate PKC when used at high concentrations.

PKCα = molecular target: T1, PKCα (Homo sapiens, UniProt P17252); assay: Protein kinase C assay, recombinant PKC alpha; type: biochemical; settings: data not shown
T1 construct: purchased Calbiochem
Protocol: Protein kinase C assay. Recombinant PKC (1 ng of alpha or epsilon isofonn) was mixed with the BR-101 (UCP-LA) in the presence of 10 micromoiar histones, 5 mM CaCl2, 1.2 μg/μl phosphatidyl-L-serine, 0.18 μg/μl 1,2-dioctanoyl-sn-glycerol (DAG), […], […] (pH 7.4), 0.8 tnIVI EDTA, 4 mM EGTA, 4% glycerol, 8 μg/ml aprotinin, 8 μ/ml leupeptin, and 2 mM benzamidine. 0.5 micro Ci [^y32P]ATP was added. The incubation mixture was incubated for 15 min at 37 degrees in a total volume of 10 microliters. The reaction was stopped by spotting the reaction mixtures on 1×2 cm strips of cellulose phosphate paper (Whatman P81) and immediately washing twice for 1 hr in 0.5% H3PO4. The cellulose phosphate strips were counted in a scintillation counter. In some experiments, phosphatidylserine, diacylglycerol, and/or calcium were removed.

PKCε = molecular target: T2, PKCε (Homo sapiens, UniProt Q02156); settings: Kanno et al.; cited from earlier work
T2 construct: purchased Calbiochem
T2 sequence (Q02156 1-737): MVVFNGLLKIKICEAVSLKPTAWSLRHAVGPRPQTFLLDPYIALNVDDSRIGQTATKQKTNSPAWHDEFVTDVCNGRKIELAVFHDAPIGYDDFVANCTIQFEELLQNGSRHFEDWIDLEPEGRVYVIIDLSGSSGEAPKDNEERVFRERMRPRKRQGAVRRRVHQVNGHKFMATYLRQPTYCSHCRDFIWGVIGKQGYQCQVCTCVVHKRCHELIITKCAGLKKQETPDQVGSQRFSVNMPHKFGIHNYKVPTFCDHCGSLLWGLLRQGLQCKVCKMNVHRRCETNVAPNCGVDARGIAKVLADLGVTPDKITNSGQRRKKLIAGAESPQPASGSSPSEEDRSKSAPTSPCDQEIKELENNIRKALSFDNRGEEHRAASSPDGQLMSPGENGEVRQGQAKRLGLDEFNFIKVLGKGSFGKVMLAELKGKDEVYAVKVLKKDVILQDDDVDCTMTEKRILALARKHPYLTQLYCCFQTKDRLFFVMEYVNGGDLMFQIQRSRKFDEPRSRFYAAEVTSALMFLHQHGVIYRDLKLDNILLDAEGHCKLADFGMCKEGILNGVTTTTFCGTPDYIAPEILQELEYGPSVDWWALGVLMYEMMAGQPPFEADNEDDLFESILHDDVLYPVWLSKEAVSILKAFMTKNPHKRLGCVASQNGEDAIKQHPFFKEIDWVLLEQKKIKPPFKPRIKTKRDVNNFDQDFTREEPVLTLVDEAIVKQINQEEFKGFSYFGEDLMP

other PKC isoforms = assay: Protein kinase C assay, purified PKC isozymes: other isoforms; type: biochemical; settings: data not shown
Protocol: (§2) Protein kinase C assay. Rat hippocampal cells were cultured and scraped in 0.2 ml homogenization buffer (20 triM Tris-HCl, pH 7.4, 50 mM NaF, 1 μg/ml leupeptin, and 0.1 mM PMSF) and homogenized by sonication in a Marsonix micro-probe sonicator (5 see, 10W). To measure PKC, 10 ul of cell homogenate or purified. PKC isozyme (purchased from Calbiochem) was incubated for 15 min at 37° C. in the presence of 10 μM histones, 4.89 mM CaCl2, 1.2 μg/μl phosphatidyl-L-serine, 0.18 μg/μl 1,2-dioctanoyl-sn-glycerol, 10 mM MgCl2, 20 mM HEPES (pH 7.4), 0.8 mM EDTA, 4 mM EGTA, 4% glycerol, 8 μg/ml aprotinin, 8 μg/ml leupeptin, and 2 mM benzamidine. 0.5 μCi [^γ-32P]ATP was added and ^32P-phosphoprotein formation was measured by adsorption onto phosphocellulose as described previously. Nelson and Alkon, J. Neurochemistry. 1995; 65: 2350-57. For measurements of activation by BR-101 (DCP-LA) and similar compounds, PKC activity was measured in the absence of diacylglycerol and phosphatidyl serine, as described by Kanno et al., and PKC δ, ε, η, and μ were measured in the absence of added EGTA and CaCl2, as described by Kanno et al., J. Lipid Res. 2006; 47: 1146-50. […]
(§3) To determine their PKC isozyme specificity, the new compounds were preincubated with purified PKC for five minutes and the PKC activity was measured radiometrically.

PKC [1] = assay: PKC activity time course in rat H19-7/IGF-IR hippocampal cells; type: cell-based
Protocol: as §1
Protein kinase C assay. Rat hippocampal cells were cultured and scraped in 0.2 ml homogenization buffer (20 triM Tris-HCl, pH 7.4, 50 mM NaF, 1 μg/ml leupeptin, and 0.1 mM PMSF) and homogenized by sonication in a Marsonix micro-probe sonicator (5 see, 10W). To measure PKC, 10 ul of cell homogenate or purified. PKC isozyme (purchased from Calbiochem) was incubated for 15 min at 37° C. in the presence of 10 μM histones, 4.89 mM CaCl2, 1.2 μg/μl phosphatidyl-L-serine, 0.18 μg/μl 1,2-dioctanoyl-sn-glycerol, 10 mM MgCl2, 20 mM HEPES (pH 7.4), 0.8 mM EDTA, 4 mM EGTA, 4% glycerol, 8 μg/ml aprotinin, 8 μg/ml leupeptin, and 2 mM benzamidine. 0.5 μCi [^γ-32P]ATP was added and ^32P-phosphoprotein formation was measured by adsorption onto phosphocellulose as described previously. Nelson and Alkon, J. Neurochemistry. 1995; 65: 2350-57. For measurements of activation by BR-101 (DCP-LA) and similar compounds, PKC activity was measured in the absence of diacylglycerol and phosphatidyl serine, as described by Kanno et al., and PKC δ, ε, η, and μ were measured in the absence of added EGTA and CaCl2, as described by Kanno et al., J. Lipid Res. 2006; 47: 1146-50. Low concentrations of Ca^2+ are used because high Ca^2+ interacts with the PKC phosphatidylserine binding site and prevents activation. For measurements of bryostatin activation, 1,2-diacylglycerol was omitted unless otherwise stated.

PKC [2] = assay: PKC activity time course in rat hippocampal primary neurons; type: cell-based; settings: sustained activation only observed in primary neurons
Protocol: as §1
Sprague Dawley rat brains were plated on 12- or 96-well plates coated with poly-D-lysine (Sigma-Aldrich, St, Louis, Mo.) in B-27 neurobasal medium containing 0.5 mM glutamine and 25 uM glutamate (Invitrogen, Carlsbad, Calif.) and cultured for three days in the medium without glutamate. […]
Protein kinase C assay. […] 0.5 μCi [^γ-32P]ATP was added and ^32P-phosphoprotein formation was measured by adsorption onto phosphocellulose as described previously. […] For measurements of activation by BR-101 (DCP-LA) and similar compounds, PKC activity was measured in the absence of diacylglycerol and phosphatidyl serine, as described by Kanno et al., and PKC δ, ε, η, and μ were measured in the absence of added EGTA and CaCl2, as described by Kanno et al., J. Lipid Res. 2006; 47: 1146-50. […]

PKCδ = molecular target: T3, PKCδ (Homo sapiens, UniProt Q05655); assay: Protein kinase C assay, purified PKC isozymes: PKCδ; type: biochemical; settings: higher concentrations, about 1-100 μM; data not shown
T3 construct: purchased Calbiochem
Protocol: as §2, §3

T3 sequence (Q05655 whole entry): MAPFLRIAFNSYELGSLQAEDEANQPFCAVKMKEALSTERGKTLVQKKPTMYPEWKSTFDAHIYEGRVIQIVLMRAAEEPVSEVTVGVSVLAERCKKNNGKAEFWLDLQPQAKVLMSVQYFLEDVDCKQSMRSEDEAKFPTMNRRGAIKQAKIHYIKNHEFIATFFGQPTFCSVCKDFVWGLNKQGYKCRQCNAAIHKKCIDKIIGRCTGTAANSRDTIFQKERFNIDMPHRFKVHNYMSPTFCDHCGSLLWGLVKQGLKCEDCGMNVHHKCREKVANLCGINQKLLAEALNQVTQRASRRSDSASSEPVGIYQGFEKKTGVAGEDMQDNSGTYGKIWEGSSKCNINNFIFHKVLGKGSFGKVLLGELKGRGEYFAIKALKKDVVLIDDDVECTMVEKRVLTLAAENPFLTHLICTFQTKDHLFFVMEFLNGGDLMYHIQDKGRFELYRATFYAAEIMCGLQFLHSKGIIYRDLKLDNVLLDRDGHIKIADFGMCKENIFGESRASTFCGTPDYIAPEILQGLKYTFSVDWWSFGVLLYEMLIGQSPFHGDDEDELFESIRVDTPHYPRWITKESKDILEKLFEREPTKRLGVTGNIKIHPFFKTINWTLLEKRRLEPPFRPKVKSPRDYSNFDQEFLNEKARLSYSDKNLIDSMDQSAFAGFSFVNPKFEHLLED

Compound	levels of intracellular Aβ (Aβ)	levels of secreted Aβ (Aβ)	concentration dependence of Aβ inhibition (Aβ)	effect on PKCα (PKCα)	potency for PKCε over other PKC isozymes (PKCε)	effects on the other PKC isoforms (other PKC isoforms)	downregulation of PKC (PKC [1])	duration of PKC elevation (PKC [2])	effect on PKCδ (PKCδ)
CCC1CC1CC1CC1CC1CC1CC1CC1CC1CC1CC1CC1CCC(=O)OC (stereo not drawn) [BR-111, methyl-3-(2-((2-((2-((2-((2-((2-ethylcyclopropyl)methyl)cyclopropyl)methyl)cyclopropyl)methyl)-cyclopropyl)methyl)cyclopropyl)methyl)cyclopropyl)propanoate]	markedly reduced	markedly reduced	monotonically increasing inhibition						
CCCCCC1CC1CC1CC1CCCCCCCC(=O)O (stereo not drawn) [BR-101, 8-[2-(2-pentyl-cyclopropylmethyl)-cyclopropyl]-octanoic acid]	markedly reduced	markedly reduced	monotonically increasing inhibition	not affected	greater than 7 fold	relatively small effects	could not be measured	remained elevated for at least four hours	partially inhibited
